From patent publication US11272841B2, “Indicator fluids, systems, and methods for assessing movement of substances within, to or from a cerebrospinal fluid, brain or spinal cord compartment of a cranio-spinal cavity of a human” (BRAINWIDESOLUTIONS AS, priority 2017, dated 2022)
Marks after values point to notes of the source that are not given here.

Test: Repeated standardized T1-weighted MRI: signal units (SU) in ROIs of CSF, venous space and brain tissue after intrathecal gadobutrol, iNPH versus reference patients (Tables 2-4, FIG. 14b, 16)
Assay type: in vivo, human
Description: The different features of Aspect 2 are based on novel in-vivo observations in humans. […] In the following paragraphs, these novel observations in humans are commented on in more detail. In these studies, the MRI contrast agent gadobutrol served as indicator fluid and MRI SUs were indication signals. MRI T1 weighted signal units were measured when gadobutrol was present within CSF after having been administered to the CSF compartment, and were compared with MR images having identical sequence parameter settings and with no gadobutrol present in CSF. […] With a MW of 605 Da, gadobutrol is a rather large molecule in comparison to the MW of water (H2O) molecule, which is 18 Da. Clearance of gadobutrol is then indicative of clearance of other substances with similar properties.
We explored both movement of the contrast agent within, to, and from the cranio-spinal cavity, including CSF, brain and spinal cord compartment, and from the cranio-spinal cavity to extra-cranial LNs. With gadobutrol present within CSF, blood level concentrations of contrast agents were determined at various time point. The repeated MRI acquisitions made it possible to create clearance curves for one or more pixels, defined by ROIs. ROIs were placed within CSF compartments, brain and spinal cord tissue compartments, and extracranial LN tissue compartments. By means of MRI, we could create graphic curves illustrating clearance of substances (clearance illustrating curves) for defined ROIs built up of a defied number of pixels for each individual. For details of said clearance curves, see FIG. 7. The establishment of clearance curves was dependent on repeated MRI acquisitions over a long period.
Using MRI SUs, we created clearance illustrating curves, see FIG. 7, for the individual patients as well as for groups of individuals. Tables 2-4 illustrate various examples of parameter values of the clearance illustrating curves.
Table 2, as discussed with FIG. 2, illustrates how maximum increase in SUs varies between individuals and patient groups. Tables 3 and 4 compare such clearance curve parameters from two patient groups, namely iNPH and reference (i.e. control) patients, illustrating inter-individual differences and differences between patient groups. These patient groups represent no limitation of the invention as it may be used in various patient groups such as Alzheimer's and dementia in general, brain tumor (e.g. astrocytoma), multiple sclerosis and inflammatory brain disease, stroke (brain infarction or bleeds), sleep disturbances, neurodegenerative disease, CSF circulation disorders, traumatic brain injury, neurometabolic diseases, glaucoma, chronic headache and migraine, and in assessment of ageing in general.
Even though perfect match of ROIs of repeated images may be difficult to obtain, the second aspect of the invention is facilitated by that image acquisition parameters at repeated MRI acquisitions are kept fixed and thus standardized. […] Further, to make best possible alignments of pixels, methods for alignment of repeated MRI acquisitions need to be implemented. Methods for alignment of repeated MRI images belong to prior art. Aids to improve alignment may incorporate landmark locations such as the cranial vault, pineal gland, and ventricular system.
Each image acquisition lasted 6 minutes and 29 seconds.

[1] = Brain parenchyma: Frontal horn, Reference
[2] = Brain parenchyma: Frontal horn, iNPH
[3] = Brain parenchyma: Inferior frontal gyrus (IFG), Reference
[4] = Brain parenchyma: Inferior frontal gyrus (IFG), iNPH
[5] = Brain parenchyma: Pons, Reference
[6] = Brain parenchyma: Precentral gyrus, Reference
[7] = Brain parenchyma: Precentral gyrus, iNPH
[8] = Brain parenchyma: Thalamus, Reference
[9] = Brain parenchyma: Thalamus, iNPH
[10] = CSF space: 3rd Ventricle, Reference
[11] = CSF space: 4th Ventricle, Reference
[12] = CSF space: Foramen Magnum, Reference
[13] = CSF space: Foramen Magnum, iNPH
[14] = CSF space: Lateral Ventricle, Reference

With `O=C([O-])CN1CCN(CC(=O)[O-])CCN([C@H](CO)[C@H](O)CO)CCN(CC(=O)[O-])CC1.[Gd+3]` (racemic) [gadobutrol] the “Enhancement coefficient (SU/min)” value [1] was 0.05 SU/min, the “Max increase (SU)” value [1] was 7.9 ± 7.9 SU and the “Time to peak” value [1] was 1109.8 ± 585.6 min. For the same compound, the “Enhancement coefficient (SU/min)” value [2] was 0.04 SU/min, the “Max increase (SU)” value [2] was 48.5 ± 32.8^b SU and the “Time to peak” value [2] was 1349.3 ± 350.9 min. The “Enhancement coefficient (SU/min)” value [3] was 0.02 SU/min, the “Max increase (SU)” value [3] was 23.8 ± 20.9 SU and the “Time to peak” value [3] was 1421.3 ± 53.1 min. The “Enhancement coefficient (SU/min)” value [4] was 0.03 SU/min, the “Max increase (SU)” value [4] was 39.1 ± 25.3 SU and the “Time to peak” value [4] was 1358.0 min. For the same compound, the “Enhancement coefficient (SU/min)” value [5] was 0.08 SU/min, the “Time to peak” value [5] was 929.4 ± 676.9 min and the “Enhancement coefficient (SU/min)” value (Brain parenchyma: Pons, iNPH) was 0.03 SU/min. The “Time to peak” value (Brain parenchyma: Pons, iNPH) was 1090.0 ± 602.3 min, the “Enhancement coefficient (SU/min)” value [6] was 0.03 SU/min and the “Max increase (SU)” value [6] was 7.8 ± 11.2 SU. The “Time to peak” value [6] was 742.8 ± 727.9 min, the “Enhancement coefficient (SU/min)” value [7] was 0.04 SU/min and the “Max increase (SU)” value [7] was 9.0 ± 8.3 SU. The “Time to peak” value [7] was 900.0 ± 686.4 min, the “Enhancement coefficient (SU/min)” value [8] was 0.01 SU/min and the “Max increase (SU)” value [8] was 9.0 ± 7.1 SU. The “Time to peak” value [8] was 1288.4 ± 386.3 min, the “Enhancement coefficient (SU/min)” value [9] was 0.01 SU/min and the “Max increase (SU)” value [9] was 13.0 ± 6.8 SU. The “Time to peak” value [9] was 1261.7 ± 462.6 min, the “Clearance coefficient (SU/min)” value [10] was −0.09 ± 0.08 SU/min and the “Clearance time” value [10] was 1135.3 ± 74.2 min. The “Enhancement coefficient (SU/min)” value [10] was 0.4 SU/min, the “Max increase (SU)” value [10] was 115.1 ± 103.8 SU and the “Max reduction (SU)” value [10] was −103.7 ± 83.9 SU. For the same compound, the “Time to peak” value [10] was 253.8 ± 133.2 min, the “Clearance coefficient (SU/min)” value (CSF space: 3rd Ventricle, iNPH) was −0.10 ± 0.07 SU/min and the “Clearance time” value (CSF space: 3rd Ventricle, iNPH) was 1234.3 ± 116.2 min. For the same compound, the “Enhancement coefficient (SU/min)” value (CSF space: 3rd Ventricle, iNPH) was 1.4 SU/min, the “Max increase (SU)” value (CSF space: 3rd Ventricle, iNPH) was 243.6 ± 136.9^a SU and the “Max reduction (SU)” value (CSF space: 3rd Ventricle, iNPH) was −114.4 ± 76.8 SU. The “Time to peak” value (CSF space: 3rd Ventricle, iNPH) was 615.3 ± 587.5 min, the “Clearance coefficient (SU/min)” value [11] was −0.18 ± 0.08 SU/min and the “Clearance time” value [11] was 1287.6 ± 105.9 min. The “Enhancement coefficient (SU/min)” value [11] was 6.3 SU/min, the “Max increase (SU)” value [11] was 236.0 ± 142.9 SU and the “Max reduction (SU)” value [11] was −232.6 ± 103.7 SU. The “Time to peak” value [11] was 123.4 ± 98.1 min, the “Clearance coefficient (SU/min)” value (CSF space: 4th Ventricle, iNPH) was −0.19 ± 0.1 SU/min and the “Clearance time” value (CSF space: 4th Ventricle, iNPH) was 1234.4 ± 109.1 min. The “Enhancement coefficient (SU/min)” value (CSF space: 4th Ventricle, iNPH) was 5.6 SU/min, the “Max increase (SU)” value (CSF space: 4th Ventricle, iNPH) was 386.5 ± 138.2^a SU and the “Max reduction (SU)” value (CSF space: 4th Ventricle, iNPH) was −231.6 ± 128.1 SU. For the same compound, the “Time to peak” value (CSF space: 4th Ventricle, iNPH) was 286.7 ± 322.9 min, the “Clearance coefficient (SU/min)” value [12] was −0.28 ± 0.08 SU/min and the “Clearance time” value [12] was 1294.4 ± 154.5 min. For the same compound, the “Enhancement coefficient (SU/min)” value [12] was 17.7 SU/min, the “Max increase (SU)” value [12] was 426.0 ± 123.0 SU and the “Max reduction (SU)” value [12] was −358.1 ± 117.7 SU. For the same compound, the “Time to peak” value [12] was 129.4 ± 156.7 min, the “Clearance coefficient (SU/min)” value [13] was −0.16 ± 0.07^b SU/min and the “Clearance time” value [13] was 1264.3 ± 116.1 min. The “Enhancement coefficient (SU/min)” value [13] was 5.9 SU/min, the “Max increase (SU)” value [13] was 398.3 ± 108.0 SU and the “Max reduction (SU)” value [13] was −206.7 ± 90.8^b SU. The “Time to peak” value [13] was 174.5 ± 94.2 min, the “Clearance coefficient (SU/min)” value [14] was −0.07 ± 0.01 SU/min and the “Clearance time” value [14] was 1098.0 ± 12.5 min. The “Enhancement coefficient (SU/min)” value [14] was 0.13 SU/min, the “Max increase (SU)” value [14] was 42.5 ± 51.9 SU and the “Max reduction (SU)” value [14] was −72.3 ± 11.9 SU. For the same compound, the “Time to peak” value [14] was 402.6 ± 446.1 min.
